Earlier results on one compound are cited in patent publication US11957723B2, “Methods and uses of microbiome compositions, components, or metabolites for treating neurodegenerative diseases” (MarvelBiome, Inc., priority 2021, dated 2024).

This data set has as its system ALS patients.

Turning to `Nc1nc2ccc(OC(F)(F)F)cc2s1` [Riluzole], the life span expansion entry (ALS patients in the early stages) is on record as “about a three-month life span expansion”. Moreover, the therapeutic benefit entry (ALS patients in the late stages) is reported as “no therapeutic benefit”.
